The record followed here is US10968203B2, “Pyrimidinyl-pyridyloxy-naphthyl compounds and methods of treating IRE1-related diseases and disorders” (Genentech, Inc., priority 2017, dated 2021).

pIC50: −log10 of the molar value. Where “and” joins values, the source holds several entries; their conditions need not be identical. Identical values can stand only once. Counter-ions that a name gives are not always drawn. Like-named read-outs stand apart in the source and are kept apart here.

The test system of the assay is XBP1s-luc 293 LUC. The experiment in a line: cellular PD assay, XBP1s-LUC reporter (Example 903). It is filed as cell-based. The settings on record: read-out: XBP1s-luc 293 LUC (IC50). The essentials:
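A luciferase fusion, in frame and expressed only when the XBP1 transcript is spliced, served as the readout of cellular IRE1α activity in an XBP1-Luc reporter line.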

The pIC50 is −log10 of the IC50, conventionally taken in molar units. For `Cc1ccc2c(Oc3ccccn3)cccc2c1Oc1ncccc1-c1ccnc(N[C@H]2CCCNC2)n1` [Example 239, (S)-4-(2-((2-Methyl-5-(pyridin-2-yloxy)naphthalen-1-yl)oxy)pyridin-3-yl)-N-(piperidin-3-yl)pyrimidin-2-amine], the pIC50 (Table 1) was 6.61. On to `Cc1ccc2c(Oc3ncccc3-c3ccnc(N[C@H]4CCCNC4)n3)c(C)ccc2c1NC[C@H](O)C(F)(F)F` [Example 319, (S)-3-((2,6-Dimethyl-5-((3-(2-((S)-piperidin-3-ylamino)pyrimidin-4-yl)pyridin-2-yl)oxy)naphthalen-1-yl)amino)-1,1,1-trifluoropropan-2-ol], for which the pIC50 is 7.32. For the compound `Cc1ccc2c(NS(=O)(=O)C[C@H]3CCC3(F)F)c(F)ccc2c1Oc1ncccc1-c1ccnc(N[C@H]2CCCNC2)n1` (single isomer, unassigned) [Example 471, hydrochloride], the pIC50 (Table 2) was 7.77. With `CCC1CC(=O)N(c2cccc3c(Oc4ncccc4-c4ccnc(N[C@H]5CCCNC5)n4)c(C)ccc23)C1` (single isomer, unassigned) [Example 356], the pIC50 (Table 1) is 6.55. As to `Cc1ccc2c(NC(=O)C3CCCC3)cccc2c1Oc1ncccc1-c1ccnc(N[C@H]2CCCNC2)n1` [Example 187, (S)—N-(6-Methyl-5-((3-(2-(piperidin-3-ylamino)pyrimidin-4-yl)pyridin-2-yl)oxy)naphthalen-1-yl)cyclopentanecarboxamide], the pIC50 (Table 1) was 6.80.

Take `Cc1ccc2c(NC(=O)C3CC3C(C)C)cccc2c1Oc1ncccc1-c1ccnc(N[C@H]2CCCNC2)n1` (single isomer, unassigned) [Example 229]: the pIC50 (Table 1) was 6.34. The same measure, in the same setting: in the case of `CCS(=O)(=O)Nc1cccc2c(Oc3ncccc3-c3ccnc(N[C@H]4CCCNC4)n3)c(C)ccc12` [Example 103, (S)—N-(6-Methyl-5-((3-(2-(piperidin-3-ylamino)pyrimidin-4-yl)pyridin-2-yl)oxy)naphthalen-1-yl)ethanesulfonamide] it was 6.59; in that of `Cc1ccc2c(NC(=O)[C@@H]3CCC(F)(F)C3)cccc2c1Oc1ncccc1-c1ccnc(N[C@H]2CCCNC2)n1` (single isomer, unassigned) [Example 269], 6.47; in that of `Cc1ccc2c(N3CCCS3(=O)=O)cccc2c1Oc1ncccc1-c1ccnc(N[C@H]2CCCNC2)n1` [Example 194, (S)-2-(6-Methyl-5-((3-(2-(piperidin-3-ylamino)pyrimidin-4-yl)pyridin-2-yl)oxy)naphthalen-1-yl)isothiazolidine 1,1-dioxide], 6.50. Turning to `Cc1ccc2c(NS(=O)(=O)CCC(C)C)c(F)ccc2c1Oc1ncccc1-c1ccnc(N[C@H]2CCCNC2)n1` [Example 243, (S)—N-(2-Fluoro-6-methyl-5-((3-(2-(piperidin-3-ylamino)pyrimidin-4-yl)pyridin-2-yl)oxy)naphthalen-1-yl)-3-methylbutane-1-sulfonamide], where the note is “Table 1”, the pIC50 is 7.17. For the compound `Cc1ccc2c(NC(=O)CC3(C)CC3)cccc2c1Oc1ncccc1-c1ccnc(N[C@H]2CCCNC2)n1` [Example 268, (S)—N-(6-Methyl-5-((3-(2-(piperidin-3-ylamino)pyrimidin-4-yl)pyridin-2-yl)oxy)naphthalen-1-yl)-2-(1-methylcyclopropyl)acetamide], the negative logarithm of the IC50 (pIC50) (Table 1) is 6.59.

For the compound `Cc1nc(Nc2cccc3c(Oc4ncccc4-c4ccnc(N[C@H]5CCCNC5)n4)c(C)ccc23)cs1` [Example 192, (S)-2-Methyl-N-(6-methyl-5-((3-(2-(piperidin-3-ylamino)pyrimidin-4-yl)pyridin-2-yl)oxy)naphthalen-1-yl)thiazol-4-amine], the pIC50 (Table 1) was 6.35. On to `Cc1ccc2c(NC(=O)[C@H]3C[C@@H]3F)cccc2c1Oc1ncccc1-c1ccnc(N[C@H]2CCCNC2)n1` [Example 235, (1R,2S)-2-Fluoro-N-(6-methyl-5-((3-(2-(((S)-piperidin-3-yl)amino)pyrimidin-4-yl)pyridin-2-yl)oxy)naphthalen-1-yl)cyclopropane-1-carboxamide], for which, under “Table 1”, the pIC50 was 6.84. Take `Cc1ccc2c(NS(=O)(=O)C[C@@H]3CCCO3)c(F)ccc2c1Oc1ncccc1-c1ccnc(N[C@H]2CCCNC2)n1` (single isomer, unassigned) [Example 416, hydrochloride]: the pIC50 (Table 2) is 6.98. For the compound `Cc1ccc2c(NS(=O)(=O)C3CC3)cccc2c1Oc1ncccc1-c1ccnc(N[C@H]2CCCNC2)n1` [Example 105, (S)—N-(6-Methyl-5-((3-(2-(piperidin-3-ylamino)pyrimidin-4-yl)pyridin-2-yl)oxy)naphthalen-1-yl)cyclopropanesulfonamide hydrochloride], the pIC50 (Table 1) is 6.31. `Cc1ccc2c(NC(=O)C3CC3C(F)(F)F)cccc2c1Oc1ncccc1-c1ccnc(N[C@H]2CCCNC2)n1` (single isomer, unassigned) [Example 227]: the negative logarithm of the IC50 (pIC50) (Table 1) was 6.31. The same measure, in the same setting: in the case of `Cc1ccc2c(NS(=O)(=O)Cc3cccnc3)cccc2c1Oc1ncccc1-c1ccnc(N[C@H]2CCCNC2)n1` [Example 125, (S)—N-(6-Methyl-5-((3-(2-(piperidin-3-ylamino)pyrimidin-4-yl)pyridin-2-yl)oxy)naphthalen-1-yl)-1-(pyridin-3-yl)methanesulfonamide hydrochloride] it was 6.50; in that of `Cc1ccc2c(NCc3cnn(C)c3)cccc2c1Oc1ncccc1-c1ccnc(N[C@H]2CCCNC2)n1` [Example 265, (S)-4-(2-((2-Methyl-5-(((1-methyl-1H-pyrazol-4-yl)methyl)amino)naphthalen-1-yl)oxy)pyridin-3-yl)-N-(piperidin-3-yl)pyrimidin-2-amine], 6.41; in that of `Cc1ccc2c(NC(=O)N3CCCCC3)cccc2c1Oc1ncccc1-c1ccnc(N[C@H]2CCCNC2)n1` [Example 116, (S)—N-(6-Methyl-5-((3-(2-(piperidin-3-ylamino)pyrimidin-4-yl)pyridin-2-yl)oxy)naphthalen-1-yl)piperidine-1-carboxamide hydrochloride], 6.37. The same measure, in the same setting: in the case of `Cc1ccc2c(NC[C@@H]3CCOC3)cccc2c1Oc1ncccc1-c1ccnc(N[C@H]2CCCNC2)n1` (single isomer, unassigned) [Example 351] it was 6.30.

Turning to `Cc1cc(CS(=O)(=O)Nc2c(F)ccc3c(Oc4ncccc4-c4ccnc(N[C@@H]5CNC[C@@H](F)C5)n4)c(C)ccc23)no1` (single isomer, unassigned) [Example 468, hydrochloride], the pIC50 (Table 2) is 8.00. With `Cc1ccc2c(NC(=O)[C@@H]3C[C@@H]3C)cccc2c1Oc1ncccc1-c1ccnc(N[C@H]2CCCNC2)n1` (single isomer, unassigned) [Example 231], the pIC50 (Table 1) was 7.28 and 7.48.

For `Cc1ccc2c(NC(=O)[C@H]3CC34CCCC4)cccc2c1Oc1ncccc1-c1ccnc(N[C@H]2CCCNC2)n1` (single isomer, unassigned) [Example 253], the pIC50 (Table 1) was 6.45. On to `Cc1ccc2c(NC[C@H](C)C#N)cccc2c1Oc1ncccc1-c1ccnc(N[C@H]2CCCNC2)n1` (single isomer, unassigned) [Example 415, hydrochloride], for which, where the note is “Table 2”, the pIC50 is 6.57. For the compound `Cc1ccc2c(NC(=O)c3cccc(C(C)(C)C#N)c3)cccc2c1Oc1ncccc1-c1ccnc(N[C@H]2CCCNC2)n1` [Example 101, (S)-3-(2-Cyanopropan-2-yl)-N-(6-methyl-5-((3-(2-(piperidin-3-ylamino)pyrimidin-4-yl)pyridin-2-yl)oxy)naphthalen-1-yl)benzamide], the pIC50 (Table 1) was 6.99. For `Cc1ccc2c(NS(=O)(=O)CC(F)(F)F)c(F)ccc2c1Oc1ncccc1-c1ccnc(N[C@H]2CCCNC2)n1` [Example 362, (S)-2,2,2-Trifluoro-N-(2-fluoro-6-methyl-5-((3-(2-(piperidin-3-ylamino)pyrimidin-4-yl)pyridin-2-yl)oxy)naphthalen-1-yl)ethanesulfonamide], the pIC50 (Table 1) is 7.63. On the same count and under the same terms, in the case of `Cc1ccc2c(NC(=O)CC3CC4CCC3C4)cccc2c1Oc1ncccc1-c1ccnc(N[C@H]2CCCNC2)n1` (stereo partly drawn) [Example 286, 2-(Bicyclo[2.2.1]heptan-2-yl)-N-(6-methyl-5-((3-(2-((S)-piperidin-3-ylamino)pyrimidin-4-yl)pyridin-2-yl)oxy)naphthalen-1-yl)acetamide] it was 6.76. On the same count and under the same terms, in the case of `Cc1ccc2c(NC[C@H]3CC3(F)F)cccc2c1Oc1ncccc1-c1ccnc(N[C@H]2CCCNC2)n1` (single isomer, unassigned) [Example 342] it was 6.92. Still for that read-out and setting: the same measure for `Cc1ccc2c(NS(=O)(=O)[C@H](C)c3ccccc3)cccc2c1Oc1ncccc1-c1ccnc(N[C@H]2CCCNC2)n1` [Example 215, (R)—N-(6-methyl-5-((3-(2-((S)-piperidin-3-ylamino)pyrimidin-4-yl)pyridin-2-yl)oxy)naphthalen-1-yl)-1-phenylethanesulfonamide]: 6.68. In the case of `CO[C@@H](C)CS(=O)(=O)Nc1c(F)ccc2c(Oc3ncccc3-c3ccnc(N[C@H]4CCCNC4)n3)c(C)ccc12` (single isomer, unassigned) [Example 393, hydrochloride], the pIC50 (Table 2) is 7.12. Regarding `Cc1ccc2c(NC(=O)[C@H]3CC34CCC4)c(F)ccc2c1Oc1ncccc1-c1ccnc(N[C@H]2CCCNC2)n1` (single isomer, unassigned) [Example 386], the pIC50 (Table 1) was 6.55. On to `Cc1ccc2c(NS(=O)(=O)CC3CCC3)c(F)ccc2c1Oc1ncccc1-c1ccnc(N[C@H]2CCCNC2)n1` [Example 400, (S)-1-Cyclobutyl-N-(2-fluoro-6-methyl-5-((3-(2-(piperidin-3-ylamino)pyrimidin-4-yl)pyridin-2-yl)oxy)naphthalen-1-yl)methanesulfonamide hydrochloride], for which the pIC50 (Table 2) was 7.59. Turning to `Cc1ccc2c(NCCCC(F)(F)F)cccc2c1Oc1ncccc1-c1ccnc(N[C@H]2CCCNC2)n1` [Example 344, (S)-4-(2-((2-Methyl-5-((4,4,4-trifluorobutyl)amino)naphthalen-1-yl)oxy)pyridin-3-yl)-N-(piperidin-3-yl)pyrimidin-2-amine], the negative-log IC50 (pIC50) (Table 1) was 6.46.
